Test results: PubChem BioAssay (NCI)
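All cell lines were grown in 96-well plates and treated with compound for 48 hours. At the TGI there is no net growth.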

Legend:
Experiment in all cases: growth of human tumour cells (NCI), 48 h
[1] = tested on: 786-0 renal
[2] = tested on: KM12 colon
[3] = tested on: SNB-75 CNS
[4] = tested on: A498 renal
[5] = tested on: OVCAR-3 ovarian
[6] = tested on: SF-539 CNS
[7] = tested on: A549 NSCLC
[8] = tested on: TK-10 renal
[9] = tested on: SF-295 CNS
[10] = tested on: MALME-3M melanoma
[11] = tested on: MCF7 breast
[12] = tested on: T-47D breast
[13] = tested on: SK-MEL-2 melanoma
[14] = tested on: HS 578T breast
[15] = tested on: HCC-2998 colon
[16] = tested on: SK-OV-3 ovarian
[17] = tested on: HOP-62 NSCLC
[18] = tested on: UO-31 renal
[19] = tested on: DU-145 prostate
[20] = tested on: MDA-MB-435
[21] = tested on: HOP-92 NSCLC
[22] = tested on: NCI/ADR-RES ovarian
[23] = tested on: NCI-H23 lung
[24] = tested on: SK-MEL-28 melanoma
[25] = tested on: NCI-H522 lung
[26] = tested on: HL-60(TB) leukemia
[27] = tested on: ACHN renal
[28] = tested on: MDA-N
[29] = tested on: UACC-62 melanoma
[30] = tested on: EKVX NSCLC
[31] = tested on: SW-620 colon
[32] = tested on: MOLT-4 leukemia
[33] = tested on: HCT-15 colon
[34] = tested on: HT29 colon
[35] = tested on: RPMI-8226 leukemia
[36] = tested on: BT-549 breast
[37] = tested on: CCRF-CEM leukemia
[38] = tested on: OVCAR-5 ovarian
[39] = tested on: COLO 205 colon
[40] = tested on: OVCAR-8 ovarian
[41] = tested on: NCI-H460 lung
[42] = tested on: SN12C renal
[43] = tested on: CAKI-1 renal
[44] = tested on: HCT-116 colon
[45] = tested on: OVCAR-4 ovarian
[46] = tested on: MDA-MB-231 breast
[47] = tested on: M14 melanoma
[48] = tested on: SNB-19 CNS
[49] = tested on: UACC-257 melanoma
[50] = tested on: SK-MEL-5 melanoma
[51] = tested on: IGROV1 ovarian
[52] = tested on: PC-3 prostate
[53] = tested on: LOX IMVI melanoma
[54] = tested on: NCI-H226 lung
[55] = tested on: SF-268 CNS
[56] = tested on: U251 CNS
[57] = tested on: RXF 393 renal
[58] = tested on: SR leukemia
[59] = tested on: K-562 leukemia

SMILES: Fc1ccc(C(OCCN2CC3CC2CN3CCCc2ccccc2)c2ccc(F)cc2)cc1 (centres undefined)
- TGI [1]: 18 µM
- TGI [2]: 21.2 µM
- TGI [3]: 7.2 µM
- TGI [4]: 18.3 µM
- TGI [5]: 25.5 µM
- TGI [6]: 5.12 µM
- TGI [7]: 26.6 µM
- TGI [8]: 23.7 µM
- TGI [9]: 20.9 µM
- TGI [10]: 8.27 µM
- TGI [11]: 18.8 µM
- TGI [12]: 7.21 µM
- TGI [13]: 21.8 µM
- TGI [14]: 25.8 µM
- TGI [15]: 5.7 µM
- TGI [16]: 31.7 µM
- TGI [17]: 29.1 µM
- TGI [18]: 24.7 µM
- TGI [19]: 24.3 µM
- TGI [20]: 20.5 µM
- TGI [21]: 26.7 µM
- TGI [22]: 19.8 µM
- TGI [23]: 23.8 µM
- TGI [24]: 9.09 µM
- TGI [25]: 21.2 µM
- TGI [26]: 12.3 µM
- TGI [27]: 23.7 µM
- TGI [28]: 19 µM
- TGI [29]: 23.1 µM
- TGI [30]: 18.5 µM
- TGI [31]: 24.1 µM
- TGI [32]: 12.5 µM
- TGI [33]: 16.8 µM
- TGI [34]: 15.5 µM
- TGI [35]: 6.54 µM
- TGI [36]: 24 µM
- TGI [37]: 21.7 µM
- TGI [38]: 23.5 µM
- TGI [39]: 3.11 µM
- TGI [40]: 10.1 µM
- TGI [41]: 17.3 µM
- TGI [42]: 22.1 µM
- TGI [43]: 24.6 µM
- TGI [44]: 18.5 µM
- TGI [45]: 25.8 µM
- TGI [46]: 15.7 µM
- TGI [47]: 3.79 µM
- TGI [48]: 27.3 µM
- TGI [49]: 12.7 µM
- TGI [50]: 3.39 µM
- TGI [51]: 22.7 µM
- TGI [52]: 17.7 µM
- TGI [53]: 19.2 µM
- TGI [54]: 23.9 µM
- TGI [55]: 22.4 µM
- TGI [56]: 19.5 µM

SMILES: CN(C)c1ccc2c(SCC(=O)OCC(=O)[C@@]3(O)CC[C@H]4[C@@H]5CCC6=CC(=O)C=C[C@]6(C)[C@H]5C(=O)C[C@@]43C)c3ccc(N(C)C)cc3nc2c1
- TGI [1]: > 47.4 µM
- TGI [2]: > 100 µM
- TGI [3]: > 89.7 µM
- TGI [4]: > 96.2 µM
- TGI [5]: > 100 µM
- TGI [6]: > 56.3 µM
- TGI [7]: > 100 µM
- TGI [8]: 48.8 µM
- TGI [9]: > 100 µM
- TGI [57]: > 57 µM
- TGI [10]: > 100 µM
- TGI [11]: > 100 µM
- TGI [12]: > 100 µM
- TGI [13]: > 100 µM
- TGI [14]: > 100 µM
- TGI [15]: > 100 µM
- TGI [16]: > 100 µM
- TGI [17]: > 100 µM
- TGI [18]: 24.8 µM
- TGI [19]: 58.2 µM
- TGI [20]: > 72.1 µM
- TGI [21]: > 64.6 µM
- TGI [23]: 64.9 µM
- TGI [24]: > 76.1 µM
- TGI [25]: > 100 µM
- TGI [26]: > 20.5 µM
- TGI [27]: 20 µM
- TGI [28]: > 100 µM
- TGI [29]: 54.6 µM
- TGI [30]: > 81.2 µM
- TGI [31]: > 100 µM
- TGI [32]: > 100 µM
- TGI [58]: 4 µM
- TGI [33]: 32.1 µM
- TGI [34]: 25.4 µM
- TGI [35]: 82.5 µM
- TGI [36]: > 49.5 µM
- TGI [38]: > 100 µM
- TGI [39]: > 100 µM
- TGI [40]: 37 µM
- TGI [41]: > 45.7 µM
- TGI [42]: > 59.3 µM
- TGI [43]: 60.8 µM
- TGI [44]: > 100 µM
- TGI [45]: > 72.1 µM
- TGI [46]: > 93.8 µM
- TGI [59]: > 70.4 µM
- TGI [47]: > 100 µM
- TGI [48]: > 94.5 µM
- TGI [49]: > 77.5 µM
- TGI [50]: > 100 µM
- TGI [51]: > 100 µM
- TGI [52]: > 100 µM
- TGI [53]: > 100 µM
- TGI [54]: 47.5 µM
- TGI [55]: > 100 µM
- TGI [56]: > 100 µM

SMILES: COC(=O)C1=C(C(=O)OC)C2(/N=C(\Nc3ccccc3)c3ccccc3)N(c3ccc(OC)cc3)CC(c3ccccc3)N2O1 (centres undefined)
- TGI [1]: > 100 µM
- TGI [2]: > 100 µM
- TGI [3]: 96.7 µM
- TGI [4]: > 100 µM
- TGI [5]: > 100 µM
- TGI [6]: > 100 µM
- TGI [7]: > 100 µM
- TGI [8]: > 100 µM
- TGI [9]: > 100 µM
- TGI [57]: > 100 µM
- TGI [10]: > 100 µM
- TGI [11]: > 100 µM
- TGI [12]: > 100 µM
- TGI [13]: > 100 µM
- TGI [14]: > 100 µM
- TGI [16]: > 100 µM
- TGI [17]: > 100 µM
- TGI [18]: > 100 µM
- TGI [19]: > 100 µM
- TGI [20]: > 100 µM
- TGI [21]: > 100 µM
- TGI [22]: > 100 µM
- TGI [23]: > 100 µM
- TGI [24]: > 100 µM
- TGI [25]: > 100 µM
- TGI [26]: > 100 µM
- TGI [27]: > 100 µM
- TGI [28]: > 100 µM
- TGI [29]: > 100 µM
- TGI [30]: > 100 µM
- TGI [31]: > 100 µM
- TGI [32]: > 100 µM
- TGI [58]: > 100 µM
- TGI [33]: > 100 µM
- TGI [34]: > 100 µM
- TGI [36]: > 100 µM
- TGI [37]: > 100 µM
- TGI [38]: > 100 µM
- TGI [39]: > 100 µM
- TGI [40]: > 100 µM
- TGI [41]: > 100 µM
- TGI [42]: > 100 µM
- TGI [43]: > 100 µM
- TGI [44]: > 100 µM
- TGI [45]: > 100 µM
- TGI [46]: > 100 µM
- TGI [59]: > 100 µM
- TGI [47]: > 100 µM
- TGI [48]: > 100 µM
- TGI [49]: > 100 µM
- TGI [50]: > 100 µM
- TGI [51]: > 100 µM
- TGI [52]: > 100 µM
- TGI [53]: > 100 µM
- TGI [55]: > 100 µM
- TGI [56]: > 100 µM
